Entries after “also recorded” stand apart in the source; their conditions may differ. [5mC] = 5-methylcytosine
Legend:
[1] = test system: EG.7 Ova expressing tumor cells; test: prophylactic anti-tumor efficacy, EG7-OVA tumor model, q7d×3; format: in vivo, C57BI/6 mice
Protocol: Efficacy studies. E.G7-OVA or EL-4 thymoma cell lines were used throughout the study. These cells were cultured in vitro according to established methods. […] Tumor measurements were made by repeated perpendicular measurements of tumor dimensions and using the formula: […]
Anti-tumor efficacy induced by subcutaneous immunization was assessed in C57BI/6 (5 animals per group) in a prophylactic immunization model. Mice were immunized subcutaneously with 3 injections on a q7d×3 dosing regimen on Days 0, 7 and 14 at a dose of 100 μg oligonucleotide and 20 μg of OVA antigen dose. […] Mice were monitored 3 times weekly to assess tumor growth and weight gain. Control mice were injected with one of PBS or HBS and […] of OVA antigen on the same schedule described above. Oligonucleotides were encapsulated in a lipid particle having a lipid composition of one of POPC: CHOL: DODAP:PEGCer14 or DSPC: CHOL: DODAP:PEGCer14 each in a ratio of 25:45:20:10. All comparisons of methylated and unmethylated oligonucleotides were done using like lipid particles. Results from these efficacy experiments are detailed in FIGS. 12-15, 18-21, and 25-28. Day 0 on each of the Figures is the day each animal was challenged with the tumor.

B16/BL6 murine melanoma = test: therapeutic anti-tumor efficacy, B-16 melanoma tumor model; format: in vivo, C57BI/6 mice; conditions: lipid encapsulated (DSPC:CHOL:DODAP:PEGCer14); 20 mg/kg ODN i.v. every other day from day 4
Protocol: Anti-tumor efficacy induced by intravenous tail immunization was assessed in C57BI/6 (8 animals per group) in a therapeutic immunization model. Animals were challenged with a subcutaneous injection of 3.0×10^5 […] B16/BL6 murine melanoma expressing tumor cells on Day-0. Mice were then treated intravenously every other day starting on day 4 for 14 days at a dose of 20 mg/kg ODN. Mice were monitored every other day to assess tumor growth and weight gain. Control mice were injected with HBS on the same schedule described above. Oligonucleotides were encapsulated in a lipid particle having a lipid composition of DSPC: CHOL: DODAP:PEGCer14 each in a ratio of 25:45:20:10. Results from this efficacy experiments are detailed in FIGS. 16 and 17. Day 0 on each of the Figures is the day each animal was challenged with the tumor.

E.G7-OVA = test: prophylactic efficacy of OVA / OVA257-264 vaccination, E.G7-OVA model; format: in vivo, C57/BL6 mice; conditions: LNA (encapsulated) forms; FIG. 35
Protocol: Vaccinations. B6 mice were vaccinated subcutaneously (SC) with […] per injection. Dosing schedules were either q7dx2 or q4dx4 and are indicated in the individual figure legends. CFA mixtures were very viscous and had to be given with a larger gauge syringe. For humoral studies, a prime (day 0) and boost (day 14) strategy was used and blood samples were collected at various times by tail nicking.
Efficacy studies. E.G7-OVA or EL-4 thymoma cell lines were used throughout the study. These cells were cultured in vitro according to established methods. For tumor studies, 2.5×106 E.G7-OVA cells were injected subcutaneously in […] of PBS containing 1% FCS. Tumor measurements were made by repeated perpendicular measurements of tumor dimensions and using the formula: […]
Full-length OVA and the immunodominant cytotoxic T lymphocyte (CTL) peptide epitope (OVA257-264) were used to evaluate cell mediated immune responses and the prophylactic and therapeutic efficacy of OVA vaccination against the E.G7-OVA transfected cell line, using LNA both as an adjuvant and as the basis for a cancer vaccine formulation. LNA formulations for this experiment were prepared using DSPC:Chol:DODAP:PEGCer14 at a ration of 25:45:20:10
The anti-tumor activity of OVA and OVA257-264 were examined against the murine thymoma cell line, E.G7-OVA, implanted subcutaneously (SC) in C57/BL6 mice. […] Given the activity observed with the protein or peptide alone, this dose and schedule represents a useful model to evaluate adjuvants designed to boost the immune response against OVA and/or OVA257-264.
To examine LNA formulations as adjuvants, the impact of three variables were evaluated on vaccination and efficacy in the prophylactic E.G7-OVA model: (1) the activity of free vs. encapsulated ODN 1, (2) phosphodiester (PO) vs phosphorothioate (PS) ODN, and (3) full-length OVA protein vs single-epitope peptide OVA257-264 (FIGS. 30A and B). In this set of studies, free and encapsulated ODN 1 was simply mixed with antigen and administered SC near the nape of the neck. ODN and antigen doses in these studies were […], respectively.

B16 cell target = test: CTL response to B16 cell target after multiple epitope immunization; format: in vivo, C57BL/6 mice; conditions: encapsulated PS-ODN 1m (POPC:Chol:DODMA:PEG-DMG) with TRP2 and Gp100 peptides or B16 lysate; 3 injections
Protocol: Targeting multiple antigens and MHC alleles might be achieved by using multiple recombinant antigen mixtures of synthetic peptide epitopes. To improve the immune response against these multi-epitope antigens several adjuvants are under assay. This experiment employs encapsulated PS-ODN 1 m using POPC:Chol:DODMA:PEG-DMG (25:45:20:10 molar ratio) in combination with two murine melanoma antigens TRP2 (H2Kb, […]) and Gp100 (H2Db, […]). C57BL/6 mice were injected 3 times with either each antigen, or both, in the presence of encapsulated PS-ODN 1 m. As positive control we used dendritic cells known to be potent in inducing CTL responses. B16 lysate containing multiple epitopes was also assayed either with ODN1m or DC for the ability to induce multi-epitope immunity. Immune response was assessed by the ability of CD8+ T cells to mediate cytotoxicity against tumor cells in an antigen-specific manner.

Substance: ODN1m: 5′-TAAZGTTGAGGGGCAT-3, SEQ ID NO: 4, Z = methylated cytosine (DNA TAACGTTGAGGGGCAT; DNA, [5mC] at 4, backbone not given here; tested with both phosphodiester and phosphorothioate backbones)
- reduction in tumor growth ([1]; free ODN, 100 μg ODN + 20 μg OVA s.c. q7d×3, tumor challenge Day 21): approached the rate of the control animal
- reduction in tumor growth ([1]; lipid encapsulated ODN, PO backbone, 100 μg ODN + 20 μg OVA s.c. q7d×3): therapeutic efficacy was greatest with the methylated version 32 days after transplantation
- reduction in tumor growth ([1]; lipid encapsulated ODN, PS backbone, 100 μg ODN + 20 μg OVA s.c. q7d×3): equal in therapeutic efficacy in comparison to the unmethylated ODN1; also recorded: improved efficacy
- percentage of tumor free animals ([1]; lipid encapsulated ODN, FIG. 19A): greater percentage of tumor free animals
- number of animals remaining in the study ([1]; lipid encapsulated ODN, FIG. 19B): essentially identical throughout the study
- survival rate of mice ([1]; lipid encapsulated ODN, versus unmethylated counterpart): increase in the survival rate
- reduction of tumor volume (B16/BL6 murine melanoma): increased its efficacy in reducing tumor volume
- efficacy of ODN sequences (E.G7-OVA): strongest responses
- CTL response (B16 cell target): a CTL response was raised against both antigens

— US20040013649A1, “Cancer vaccines and methods of using the same” (Inex Pharmaceuticals Corporation, priority 2002, published 2004)
